Measurements: patent publication US20250090571A1, “CARD9 ATTENUATES AB PATHOLOGY AND MODIFIES MICROGLIAL RESPONSES IN AN ALZHEIMER’S DISEASE” (University of Virginia Patent Foundation, priority 2023, published 2025)

Experiments:
Format in all cases: in vivo, mouse
Card9−/−5×FAD mice [1] = assay: Intrahippocampal injection of pustulan, Aβ load in the hippocampus by immunofluorescence (CARD9-deficient control); details: 2-month-old Card9−/−5×FAD mice, 2 μg pustulan intrahippocampal, 7 days post-injection, vs vehicle-treated hemisphere
Experimental: (§1) As previously published (110), brain sections were blocked for 1 hour at room temperature with 2% donkey serum, 1% bovine serum albumin, 0.1% triton, 0.05% tween in PBS prior to incubation with primary antibodies. The primary antibodies were then diluted in this block overnight at 4° C. Brain sections were stained with anti-Aβ (D54D2, Cell Signaling, 1:300 dilution) to label plaques. To assess neuronal cell death, sections were stained with anti-NeuN (MAβ377, Millipore Sigma, 1:500 dilution) and TUNEL (Millipore Sigma, 11684795910, according to the manufacturer's instructions). In order to analyze microglia, sections were stained with IBA1 (ab5076, Abcam, 1:300 dilution). Microglial proliferation was assessed using Ki67-EF660 (SolA15, Thermo Fisher, 1:100 dilution). Microglial iron accumulation was measured using Ferritin Heavy Chain (PA5-27500, Thermo Fisher, 1:500). Following primary antibody incubation, sections were then washed 3 times for 10 minutes at room temperature in PBS and 0.05% tween-20. After washing, the brain sections were incubated in respective donkey Alexa Fluor 488, 594, 647 anti-rabbit, -goat, -rat, -streptavidin, and-mouse (Thermo Fisher, 1:1000 dilution) for 2 hours at room temperature. Once again, brain sections were washed 3 times for 10 minutes at room temperature. […] Images were analyzed using FIJI software or Imaris software (9.5.1). […]

5×FAD mice [2] = assay: Intrahippocampal injection of pustulan, Aβ load in the hippocampus by immunofluorescence; details: 2-month-old 5×FAD mice, 2 μg pustulan intrahippocampal, 7 days post-injection, vs vehicle-treated hemisphere
Experimental: As previously published (110), brain sections were blocked for 1 hour at room temperature with 2% donkey serum, 1% bovine serum albumin, 0.1% triton, 0.05% tween in PBS prior to incubation with primary antibodies. The primary antibodies were then diluted in this block overnight at 4° C. Brain sections were stained with anti-Aβ (D54D2, Cell Signaling, 1:300 dilution) to label plaques. To assess neuronal cell death, sections were stained with anti-NeuN (MAβ377, Millipore Sigma, 1:500 dilution) and TUNEL (Millipore Sigma, 11684795910, according to the manufacturer's instructions). In order to analyze microglia, sections were stained with IBA1 (ab5076, Abcam, 1:300 dilution). Microglial proliferation was assessed using Ki67-EF660 (SolA15, Thermo Fisher, 1:100 dilution). Microglial iron accumulation was measured using Ferritin Heavy Chain (PA5-27500, Thermo Fisher, 1:500). Following primary antibody incubation, sections were then washed 3 times for 10 minutes at room temperature in PBS and 0.05% tween-20. After washing, the brain sections were incubated in respective donkey Alexa Fluor 488, 594, 647 anti-rabbit, -goat, -rat, -streptavidin, and-mouse (Thermo Fisher, 1:1000 dilution) for 2 hours at room temperature. Once again, brain sections were washed 3 times for 10 minutes at room temperature. […] Images were analyzed using FIJI software or Imaris software (9.5.1).
5×FAD and Card9^−/−5×FAD mice were anesthetized with a ketamine/xylazine cocktail before receiving a bilateral hippocampal injection of 2 μl of vehicle or 2 μg pustulan into the right and left hemisphere of the hippocampus (at +2 mm lateral, -2 mm posterior, and −2 mm ventral relative to the intersection of the coronal and sagittal suture (bregma) at a rate of 200 nl/min) using a stereotaxic frame (51730U, Stoelting) and nanoliter injector (NL2010MC2T, World Precision Instruments). […] Images were analyzed using FIJI software or Imaris software (9.5.1). […]

Card9−/−5×FAD mice [3] = assay: Microglia depletion with PLX5622 chow, microgliosis and Aβ load in the cortex (CARD9-deficient); details: PLX5622 chow for 2.5 months, vs control chow
Experimental: as §1

5×FAD mice [4] = assay: Microglia depletion with PLX5622 chow, microgliosis and Aβ load in the cortex; details: PLX5622 chow for 2.5 months, vs normal chow
Experimental: as §1

Compound	levels of Aβ in the hippocampus (Card9−/−5×FAD mice [1])	Aβ coverage in the hippocampus (5×FAD mice [2])	Aβ plaque volume in the hippocampus (5×FAD mice [2])	number of Aβ plaques in the hippocampus (5×FAD mice [2])	Aβ plaque load in the cortex (Card9−/−5×FAD mice [3])	Aβ plaque load in the cortex (5×FAD mice [4])
Pustulan	comparable levels of Aβ regardless of treatment	significantly reduced	lower plaque volume	fewer plaques		
COc1ncc(F)cc1CNc1ccc(Cc2c[nH]c3ncc(C)cc23)c(F)n1 [PLX5622]					did not significantly impact	significantly increased
